Drawing on PMC13001051, “TRPA1-kinase axis polarization: Nepetalactone drives pest repulsion and predator attraction via divergent PKC/CaMKII signaling” (Journal of Advanced Research, 2025), this text covers EC50 for one compound.

As a reminder, the EC50 is the concentration at which the effect is half-maximal.

What all share (experiment): Fluo-4 calcium flux in transfected HEK293T cells
Background: Calcium flux is commonly read through the fluorescence of an indicator in the cells.

In assay [1] the test system is T1, PjTRPA1.
T1 construct: gene TRPA1; full-length in pcDNA3.1(+)-mCherry, HEK293T cells
The class given is cell-based, Propylea japonica. The settings on record: agonist; DMSO as negative control. The source says: Fluo-4 calcium flux in transfected HEK293T cells on PjTRPA1 | Concentration-response curves of nepetalactone-induced calcium signaling in HEK293T cells heterologously expressing HaTRPA1 or PjTRPA1

The test system of assay [2] is T2, MuTRPA1.
T2 construct: gene TRPA1; full-length ORF (1403 aa, 16 ankyrin repeats) in pcDNA3.1(+)-mCherry, HEK293T cells
In kind it is cell-based, Megalurothrips usitatus. The conditions noted are these: agonist; DMSO as negative control.

For assay [3], the target named is T3, HaTRPA1 (Harmonia axyridis, UniProt Z9S2A3GZC9).
T3 construct: full-length in pcDNA3.1(+)-mCherry, HEK293T cells
T3 sequence (Z9S2A3GZC9 1-1276): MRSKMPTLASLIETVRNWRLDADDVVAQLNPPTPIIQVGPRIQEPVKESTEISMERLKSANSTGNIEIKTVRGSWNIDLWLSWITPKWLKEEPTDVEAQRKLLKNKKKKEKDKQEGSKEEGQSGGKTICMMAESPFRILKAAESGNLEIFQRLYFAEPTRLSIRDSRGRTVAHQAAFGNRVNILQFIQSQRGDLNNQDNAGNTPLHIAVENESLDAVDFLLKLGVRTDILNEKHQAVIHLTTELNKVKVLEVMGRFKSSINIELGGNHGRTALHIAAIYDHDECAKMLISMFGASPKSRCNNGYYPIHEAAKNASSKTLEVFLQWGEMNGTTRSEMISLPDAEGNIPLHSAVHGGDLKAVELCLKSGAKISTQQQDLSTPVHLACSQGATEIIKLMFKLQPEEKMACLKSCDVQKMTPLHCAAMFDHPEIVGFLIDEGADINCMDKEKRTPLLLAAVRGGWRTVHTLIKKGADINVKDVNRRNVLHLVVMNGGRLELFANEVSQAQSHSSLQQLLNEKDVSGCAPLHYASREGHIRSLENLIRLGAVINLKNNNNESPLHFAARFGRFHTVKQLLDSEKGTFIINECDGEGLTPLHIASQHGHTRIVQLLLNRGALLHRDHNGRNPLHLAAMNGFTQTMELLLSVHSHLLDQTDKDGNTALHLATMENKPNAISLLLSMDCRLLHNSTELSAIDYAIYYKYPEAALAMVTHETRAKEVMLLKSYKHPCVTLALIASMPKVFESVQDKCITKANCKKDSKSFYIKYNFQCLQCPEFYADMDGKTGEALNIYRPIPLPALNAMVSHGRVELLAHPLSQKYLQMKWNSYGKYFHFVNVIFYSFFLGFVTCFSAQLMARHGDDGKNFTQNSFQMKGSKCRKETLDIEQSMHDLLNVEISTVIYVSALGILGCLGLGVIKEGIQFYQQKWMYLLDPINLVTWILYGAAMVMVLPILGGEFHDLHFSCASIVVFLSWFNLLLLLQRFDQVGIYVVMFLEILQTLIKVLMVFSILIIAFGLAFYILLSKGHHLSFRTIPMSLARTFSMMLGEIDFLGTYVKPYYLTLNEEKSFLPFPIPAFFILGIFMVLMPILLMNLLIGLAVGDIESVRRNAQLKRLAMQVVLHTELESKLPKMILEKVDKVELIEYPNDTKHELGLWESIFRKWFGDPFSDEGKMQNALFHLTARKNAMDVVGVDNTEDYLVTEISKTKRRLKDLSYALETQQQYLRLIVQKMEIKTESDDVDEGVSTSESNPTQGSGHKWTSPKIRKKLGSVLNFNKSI
In kind it is cell-based. The source says: Fluo-4 calcium flux in transfected HEK293T cells on HaTRPA1 | Concentration-response curves of nepetalactone-induced calcium signaling in HEK293T cells heterologously expressing HaTRPA1 or PjTRPA1

For assay [4], the system named is T4, DcTRPA1.
T4 construct: gene TRPA1; full-length ORF (1073 aa, 14 ankyrin repeats) in pcDNA3.1(+)-mCherry, HEK293T cells
In kind it is cell-based, Diaphorina citri. The conditions noted are these: agonist; DMSO as negative control.

Regarding `CC1=COC(=O)C2C(C)CCC12` (stereo not shown) [nepetalactone], the EC50 turned out to be 128 µM in assay [1], 172 µM in assay [2], 404 µM in assay [3] and 698 µM in assay [4].
